The results in this text go back to PubChem BioAssay AID1552 (Sanford-Burnham Center for Chemical Genomics, 2009).

Active and inactive are the calls of the source. How the calls were made is not given here.

Chain of Ubiquitin-conjugating enzyme E2 N (Homo sapiens) (P61088 whole entry, looked up): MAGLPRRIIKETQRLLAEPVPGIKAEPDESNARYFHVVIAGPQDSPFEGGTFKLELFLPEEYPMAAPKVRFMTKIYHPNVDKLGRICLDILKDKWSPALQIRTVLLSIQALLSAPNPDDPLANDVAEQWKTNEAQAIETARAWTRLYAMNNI

The test addresses Ubiquitin-conjugating enzyme E2 N (Homo sapiens) (UniProt P61088). The test is described as follows: NMR detection of UBE2N ligand binding – biophysical, purified protein (AID 1552). The following applies: NMR binding to purified UBE2N.
With `O=C(O)c1ccc(-n2cncn2)cc1`, the Kd is > 4 mM (inactive).

Take `O=CN1CCN(C(=O)c2ccccc2F)CC1`: the Kd is > 4 mM (inactive).

As for `Nc1ccncc1`, the Kd was > 4 mM (inactive).

As for `NC(=O)C1CCN(S(=O)(=O)c2ccccc2)CC1`, the Kd is > 4 mM (inactive).

As to `CC(=O)N1CCN(c2ccc(O)cc2)CC1`, the Kd is > 4 mM (inactive).

Take `Cc1cc(C)n2nc(N)nc2n1`: the Kd was > 4 mM (inactive).

Consider `Cc1ccc(F)cc1NC(=O)c1ccc2c(c1)OCO2`, for which the Kd is > 4 mM (inactive).

For the compound `O=[N+]([O-])c1cccc(-c2nnco2)c1`, the Kd was > 4 mM (inactive).

`Cc1ccc(-c2cc(C(=O)N3CCCC3)no2)cc1`: the Kd is > 4 mM (inactive).

Turning to `NS(=O)(=O)c1ccc(F)cc1`, the Kd was > 4 mM (inactive).

For `CC(=O)Oc1ccc(-c2nc(-c3cccnc3)no2)cc1`, the Kd is > 4 mM (inactive).

As to `C[C@]12CCC3C(CC[C@H]4C[C@@H](O)CC[C@]34C)C1CCC2=O` (stereo partly specified), the Kd is > 4 mM (inactive).

`COc1cc([C@@H]2c3cc4c(cc3[C@H](OC(C)=O)[C@H]3COC(=O)[C@H]23)OCO4)cc(OC)c1OC`: the Kd was > 4 mM (inactive).

`O=C(CSc1ncn[nH]1)c1ccc2c(c1)OCCO2`: the Kd was > 4 mM (inactive).

For `O=c1c2ccccc2nc2n1CCCCN2`, the Kd was > 4 mM (inactive).

As for `N#Cc1c(N)c(C(=O)c2ccccc2)n2c1CCC2`, the Kd was > 4 mM (inactive).

Take `CNC(=O)Cn1c(=O)n(C)c2ccccc21`: the Kd was > 4 mM (inactive).

On to `Cc1ccc(CN2C3=NC(=O)CN3c3ccccc32)cc1`, for which the Kd was > 4 mM (inactive).

As for `COc1ccccc1-c1nc(-c2ccc(C)nc2OC)no1`, the Kd was > 4 mM (inactive).

On to `O=C1C=CC(=O)N1c1ccccc1O`, for which the Kd was > 4 mM (inactive).

As to `Nc1cncc(C(=O)O)c1`, the Kd is > 4 mM (inactive).

Turning to `NCC1CN(Cc2ccccc2)CCO1` (stereo unspecified), the Kd was > 4 mM (inactive).

`CCOC(=O)CNC(=O)CSc1nnc(C)c(=O)[nH]1`: the Kd was > 4 mM (inactive).

For the compound `CC(=O)Nc1ccc2c(c1)n(C)c(=O)n2C`, the Kd was > 4 mM (inactive).

Consider `O=C(O)CCN1CCc2ccccc2C1c1ccncc1` (stereo unspecified), for which the Kd was > 4 mM (inactive).

Take `O=c1c(O)c(-c2ccccc2)oc2ccccc12`: the Kd was > 4 mM (inactive).

In the case of `Cc1cc(NC(=O)CS(=O)(=O)c2ccccc2)no1`, the Kd is > 4 mM (inactive).

`CN1CCN(c2cc(=O)n(C)c(=O)[nH]2)CC1`: the Kd is > 4 mM (inactive).

In the case of `COc1cc2c(cc1OC)[C@@H]1C(=O)c3ccc(OC)c(CC=C(C)C)c3O[C@@H]1CO2`, the Kd is > 4 mM (inactive).

In the case of `COc1cc([C@@H]2c3cc4c(c(O)c3C[C@H]3COC(=O)[C@@H]32)OCO4)cc(OC)c1OC`, the Kd is > 4 mM (inactive).

For `CC(C)=CCC1=C(O)c2ccccc2C(=O)C1=O`, the Kd was > 4 mM (inactive).

For `CCOc1ccc2nc(NS(C)(=O)=O)sc2c1`, the Kd was > 4 mM (inactive).

With `O=C(CC1SC(=O)NC1=O)Nc1nccs1` (stereo unspecified), the Kd is > 4 mM (inactive).

Turning to `COc1ncnc(N)c1[N+](=O)[O-]`, the Kd was > 4 mM (inactive).

Regarding `O=C(O)c1ccc2ccccc2n1`, the Kd is > 4 mM (inactive).

As to `CC(CCC(=O)O)[C@H]1CCC2C3C(C[C@H](O)[C@@]21C)[C@@]1(C)CC[C@@H](O)C[C@H]1C[C@H]3O` (stereo partly specified), the Kd was > 4 mM (inactive).

`COc1cc(OC)c(-c2nc3cnccc3n2C)cc1OC`: the Kd is > 4 mM (inactive).

For `Nc1csc(C(=O)O)c1`, the Kd was > 4 mM (inactive).

For the compound `Cc1c(N=Cc2ccco2)c(=O)n(-c2ccccc2)n1C`, the Kd is > 4 mM (inactive).

Regarding `Nc1ccccc1-c1nc2ccccc2[nH]1`, the Kd was > 4 mM (inactive).

`CCOC(=O)c1c[nH]c2c(F)cccc2c1=O`: the Kd was > 4 mM (inactive).

On to `CCOC(=O)CC1Sc2ccccc2NC1=O` (stereo unspecified), for which the Kd was > 4 mM (inactive).

Turning to `O=C(CC1NCCNC1=O)Nc1ccccc1` (stereo unspecified), the Kd is > 4 mM (inactive).

With `CCc1cc2c(SCC(=O)O)ncnc2s1`, the Kd is > 4 mM (inactive).

Turning to `Cc1nnc(SCC(N)=O)c2ccccc12`, the Kd is > 4 mM (inactive).

`CC(=O)c1ccc2c(c1)OCCO2`: the Kd was > 4 mM (inactive).

Take `CC(C)(CO)NC(=O)c1ccccc1F`: the Kd was > 4 mM (inactive).

For the compound `O=C(NCC1CCCCC1)c1ccco1`, the Kd is > 4 mM (inactive).

In the case of `Cc1n[nH]c(C)c1NC(=O)c1cccc(F)c1`, the Kd was > 4 mM (inactive).

Take `CN1CCN(C2CCN(Cc3ccccc3)CC2)CC1`: the Kd is > 4 mM (inactive).

As for `COc1ccc(C)cc1S(=O)(=O)Nc1ccccc1C`, the Kd was > 4 mM (inactive).

Take `O=C(O)CNC(=O)c1ccccc1Cl`: the Kd is > 4 mM (inactive).

As for `O=C1CC(=O)N(c2cccc(Cl)c2)N1`, the Kd is > 4 mM (inactive).

Take `O=c1c(O)c(-c2ccccc2)oc2ccc3occc3c12`: the Kd is > 4 mM (inactive).

As to `COc1cc(/C=C2/NC(=S)NC2=O)cc(Cl)c1O`, the Kd is > 4 mM (inactive).

Take `Cc1noc(-c2ccccc2)c1C(=O)O`: the Kd is > 4 mM (inactive).

For `O=C(COc1ccccc1O)NCCO`, the Kd was > 4 mM (inactive).

Regarding `O=c1ccc2cc(O[C@@H]3O[C@H](CO)[C@@H](O)[C@H](O)[C@H]3O)c(O)cc2o1`, the Kd is > 4 mM (inactive).

For the compound `Cc1sc2nc(SCC(=O)N(C)C)[nH]c(=O)c2c1C`, the Kd was > 4 mM (inactive).

For `CC(=O)c1cccc(NS(=O)(=O)N2CCCCC2)c1`, the Kd is > 4 mM (inactive).

As to `COc1ccc(C)cc1-n1c(-c2ccncc2)n[nH]c1=S`, the Kd is > 4 mM (inactive).

`Cn1ccnc1C(O)c1ccccc1` (stereo unspecified): the Kd is > 4 mM (inactive).

With `C[n+]1ccc(C(=O)[O-])cc1`, the Kd was > 4 mM (inactive).

As for `CC1(C)C=Cc2c(cc3occ(-c4ccc5c(c4)OCO5)c(=O)c3c2O)O1`, the Kd is > 4 mM (inactive).

For the compound `Cc1c(CCO)c(=O)n2c([nH]c3ccccc32)c1C#N`, the Kd is > 4 mM (inactive).

Turning to `Nc1ccc(-c2csnn2)cc1`, the Kd is > 4 mM (inactive).

Turning to `NC(=O)CSc1ccc2nnc(-c3ccccc3)n2n1`, the Kd is > 4 mM (inactive).

On to `Cc1cc(O)cc(=O)o1`, for which the Kd is > 4 mM (inactive).

Take `CSc1nc2nccc(N)n2n1`: the Kd is > 4 mM (inactive).

Take `Cc1ccc2nc(NC(=O)CN3CCOCC3)sc2c1`: the Kd is > 4 mM (inactive).

Regarding `COc1nc(N2CCOCC2)nc(N)c1[N+](=O)[O-]`, the Kd is > 4 mM (inactive).

Regarding `COc1ccc([C@H]2Oc3c(I)c(OC)cc(OC)c3C[C@@H]2O)cc1OC`, the Kd was > 4 mM (inactive).

Consider `C[C@@H](N)[C@@H](O)c1ccccc1`, for which the Kd is > 4 mM (inactive).

For the compound `Cn1c(=O)cc(N2CCCCC2)[nH]c1=O`, the Kd is > 4 mM (inactive).

As to `Nc1ncnc2c1ncn2[C@@H]1O[C@H](CO)[C@@H](O)[C@H]1O`, the Kd is > 4 mM (inactive).

In the case of `Nc1nnc(C(F)(F)F)s1`, the Kd was > 4 mM (inactive).

Regarding `CNC(=O)c1ccccc1N`, the Kd was > 4 mM (inactive).

Turning to `Cc1nc(-c2cnccn2)sc1C(=O)O`, the Kd was > 4 mM (inactive).

`Cc1n[nH]c(=S)[nH]c1=O`: the Kd was > 4 mM (inactive).

Turning to `Cc1cc(=O)cc(C)n1-c1ccccc1N1CCOCC1`, the Kd was > 4 mM (inactive).

In the case of `NCc1csc2ccccc12`, the Kd was > 4 mM (inactive).

On to `CC(=O)c1cc(C)ccc1OC(=O)c1cccnc1`, for which the Kd was > 4 mM (inactive).

Regarding `CSc1nc(O)cc(=O)[nH]1`, the Kd was > 4 mM (inactive).

`CC(=O)Oc1cc(-c2coc3cc(OC(C)=O)c(OC(C)=O)c(OC(C)=O)c3c2=O)cc(OC(C)=O)c1OC(C)=O`: the Kd is > 4 mM (inactive).

Consider `NC(=O)C1CCN(Cc2ccccc2)CC1`, for which the Kd is > 4 mM (inactive).

Take `O=C(NC(=S)NC1CCS(=O)(=O)C1)c1ccccc1` (stereo unspecified): the Kd is > 4 mM (inactive).

Take `C/C=C1\[C@H]2C=C(C)C[C@]1(N)c1ccc(=O)[nH]c1C2`: the Kd is > 4 mM (inactive).

With `Cc1nccn1CCC(=O)O`, the Kd was > 4 mM (inactive).

Consider `OC(c1ccccc1)c1ccccn1` (stereo unspecified), for which the Kd is > 4 mM (inactive).

Consider `O=C(O)c1cncc(-c2ccccc2)c1`, for which the Kd is > 4 mM (inactive).

Regarding `CCOC(=O)c1cc(C)[nH]n1`, the Kd is > 4 mM (inactive).

Turning to `c1nnc2c3c4c(sc3ncn12)CCCC4`, the Kd was > 4 mM (inactive).

`Cc1cc(C(=O)N2CCCCCC2)cs1`: the Kd was > 4 mM (inactive).

As to `CC(=O)O[C@H]1CC[C@@]2(C)C(CC[C@]3(C)C2CC=C2C4CC(C)(C)CC[C@]4(C)CC[C@]23C)C1(C)C` (stereo partly specified), the Kd is > 4 mM (inactive).

Take `O=C(Nn1cnnc1)c1ccccc1-c1ccccc1`: the Kd was > 4 mM (inactive).

Take `Cc1nc(N)sc1C(=O)Nc1nccs1`: the Kd is > 4 mM (inactive).

Turning to `Cc1cc(=O)n2nc(-c3ccccc3)sc2n1`, the Kd was > 4 mM (inactive).

Take `CCOc1ccc(C(=O)c2ccc(O)c(O)c2O)cc1`: the Kd was > 4 mM (inactive).

For the compound `C(=N\n1cnnc1)/c1cccs1`, the Kd is > 4 mM (inactive).

Turning to `COc1ccccc1NC(C)=O`, the Kd was > 4 mM (inactive).

On to `C/C=C(\C)c1nnc(NC(=O)C(C)C)s1`, for which the Kd was > 4 mM (inactive).

For `CN1C(=O)CC(=O)N(C)c2ccccc21`, the Kd was > 4 mM (inactive).

As for `Fc1ccc(CN2CCCNCC2)cc1`, the Kd was > 4 mM (inactive).

As to `CN(C)C(=S)Nc1nc2ccccc2s1`, the Kd is > 4 mM (inactive).

Regarding `O=C1CSC(=Nc2cc(Cl)ccc2Cl)N1`, the Kd was > 4 mM (inactive).

With `CC1=NN2C(=N)CC(=O)N=C2S1`, the Kd is > 4 mM (inactive).

Usually Kd stands for the equilibrium constant for the complex coming apart.
